Measurements: PubChem BioAssay AID1963872 (Molecular Pharmacology Branch, DTP, NCI, 2024)

Test system: KRAS patient-derived spheroids with HUVEC/MSC, viability
Assay: Anticancer human tumor 519858-162-T-J1-PDC patient-derived colon adenocarcinoma cell line growth inhibition [KRAS2]
Details: for viability, T/C: stronger effect = lower value
In short: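 Combination screen of spheroid viability in tumor-cell co-cultures with endothelial (HUVEC) and mesenchymal stem cell stroma. Each agent was tested in half-log dilutions, topping at clinical Cmax or at 10 microM without a known Cmax.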

[1] = curve of first compound, second compound 0.1 µM
[2] = curve of first compound, second compound 0.316 µM
[3] = curve of first compound, second compound 1 µM
[4] = curve of first compound, second compound 3.16 µM
[5] = curve of first compound, second compound 10 µM
[6] = second compound 0.1 µM, first compound 0.0316 µM
[7] = second compound 0.1 µM, first compound 0.1 µM
[8] = second compound 0.316 µM, first compound 0.0316 µM
[9] = second compound 0.316 µM, first compound 0.1 µM
[10] = second compound 1 µM, first compound 0.0316 µM
[11] = second compound 1 µM, first compound 0.1 µM
[12] = second compound 3.16 µM, first compound 0.0316 µM
[13] = second compound 3.16 µM, first compound 0.1 µM
[14] = second compound 10 µM, first compound 0.0316 µM
[15] = second compound 10 µM, first compound 0.1 µM
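Also: compound exposure lasted seven days before readout.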
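For viability, T/C in this document: 100% = DMSO vehicle control viability.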

CC1OCC2(CCN(c3cnc(Sc4ccnc(N)c4Cl)c(N)n3)CC2)C1N (stereo not drawn) + CNCc1ccccc1-c1csc(C(C)Nc2nc(C)nc3cc(OC)c(OC)cc23)c1
IC50 [1]: > 10000 nM | IC50 [2]: > 10000 nM | IC50 [3]: > 10000 nM | IC50 [4]: 98.2 nM | IC50 [5]: < 31.6 nM | viability, T/C [6]: 97.1% | viability, T/C [7]: 99.2% | viability, T/C (second compound 0.1 µM, first compound 0.316 µM): 85.4% | viability, T/C (second compound 0.1 µM, first compound 1 µM): 59.3% | viability, T/C (second compound 0.1 µM, first compound 3.16 µM): 54% | viability, T/C (second compound 0.1 µM, first compound 10 µM): 60.4% | viability, T/C [8]: 80.6% | viability, T/C [9]: 92% | viability, T/C (second compound 0.316 µM, first compound 0.316 µM): 68% | viability, T/C (second compound 0.316 µM, first compound 1 µM): 60.8% | viability, T/C (second compound 0.316 µM, first compound 3.16 µM): 69.7% | viability, T/C (second compound 0.316 µM, first compound 10 µM): 58.9% | viability, T/C [10]: 72.9% | viability, T/C [11]: 83.5% | viability, T/C (second compound 1 µM, first compound 0.316 µM): 77.3% | viability, T/C (second compound 1 µM, first compound 1 µM): 50.3% | viability, T/C (second compound 1 µM, first compound 3.16 µM): 35.3% | viability, T/C (second compound 1 µM, first compound 10 µM): 66% | viability, T/C [12]: 66.6% | viability, T/C [13]: 53.9% | viability, T/C (second compound 3.16 µM, first compound 0.316 µM): 36.1% | viability, T/C (second compound 3.16 µM, first compound 1 µM): 43.1% | viability, T/C (second compound 3.16 µM, first compound 3.16 µM): 42.7% | viability, T/C (second compound 3.16 µM, first compound 10 µM): 41.2% | viability, T/C [14]: 10.2% | viability, T/C [15]: 34.6% | viability, T/C (second compound 10 µM, first compound 0.316 µM): 0.2% | viability, T/C (second compound 10 µM, first compound 1 µM): 0.15% | viability, T/C (second compound 10 µM, first compound 3.16 µM): 6.03% | viability, T/C (second compound 10 µM, first compound 10 µM): 13.6%

Cn1ncnc1[C@H]1c2n[nH]c(=O)c3cc(F)cc(c23)N[C@@H]1c1ccc(F)cc1
viability, T/C (compound 0.00316 µM): 85.4% [middle of 5 runs] | viability, T/C (compound 0.01 µM): 87% [middle of 5 runs] | IC50 (curve of compound): > 100 nM

CN(C)C/C=C/C(=O)Nc1cc2c(Nc3ccc(F)c(Cl)c3)ncnc2cc1O[C@H]1CCOC1 + COc1cc2nc(C)nc(NC(C)c3cc(N)cc(C(F)(F)F)c3)c2cc1OC1CCOC1
IC50 [1]: > 100 nM | IC50 [2]: > 100 nM | IC50 [3]: > 100 nM | IC50 [4]: 81.3 nM | IC50 [5]: > 100 nM | viability, T/C (second compound 0.1 µM, first compound 0.000316 µM): 87% | viability, T/C (second compound 0.1 µM, first compound 0.001 µM): 91.3% | viability, T/C (second compound 0.1 µM, first compound 0.00316 µM): 92.7% | viability, T/C (second compound 0.1 µM, first compound 0.01 µM): 92.6% | viability, T/C [6]: 78.7% | viability, T/C [7]: 81.2% | viability, T/C (second compound 0.316 µM, first compound 0.000316 µM): 93% | viability, T/C (second compound 0.316 µM, first compound 0.001 µM): 73.7% | viability, T/C (second compound 0.316 µM, first compound 0.00316 µM): 73.4% | viability, T/C (second compound 0.316 µM, first compound 0.01 µM): 73.5% | viability, T/C [8]: 90.8% | viability, T/C [9]: 98.9% | viability, T/C (second compound 1 µM, first compound 0.000316 µM): 138% | viability, T/C (second compound 1 µM, first compound 0.001 µM): 146% | viability, T/C (second compound 1 µM, first compound 0.00316 µM): 101% | viability, T/C (second compound 1 µM, first compound 0.01 µM): 101% | viability, T/C [10]: 95.5% | viability, T/C [11]: 91.2% | viability, T/C (second compound 3.16 µM, first compound 0.000316 µM): 85.6% | viability, T/C (second compound 3.16 µM, first compound 0.001 µM): 80.7% | viability, T/C (second compound 3.16 µM, first compound 0.00316 µM): 90.3% | viability, T/C (second compound 3.16 µM, first compound 0.01 µM): 88.3% | viability, T/C [12]: 75.5% | viability, T/C [13]: 44.5% | viability, T/C (second compound 10 µM, first compound 0.000316 µM): 73.2% | viability, T/C (second compound 10 µM, first compound 0.001 µM): 62.5% | viability, T/C (second compound 10 µM, first compound 0.00316 µM): 76.9% | viability, T/C (second compound 10 µM, first compound 0.01 µM): 88.3% | viability, T/C [14]: 70.3% | viability, T/C [15]: 62.3%
